The source of these data is patent US20130150317A1, “COMPOUNDS FOR THE TREATMENT OF RENAL CELL CARCINOMA” (Myrovlytis Technology Ventures Limited, priority 2010, published 2013).

The structures appear in SMILES notation. “Also recorded” adds a separate entry of the source. Read-outs that look alike come from different tables or passages of the source.

For orientation: GI50 means the concentration giving 50% growth inhibition.

In assay [1] the test system is UOK cells with/without FLCN expression. The assay can be described thus: Effect of low-concentration rapamycin on cell proliferation (preliminary data). To be noted: 1 nmol/L rapamycin; data not shown.
The test system of a further assay is UOK257-FLCN^− cells. The assay can be described thus: SRB growth inhibition assay in UOK257-FLCN^− cells. The format is cell-based, human. From the text: (§1) Human renal carcinoma of BHD origin cells UOK-257 (UOK-FLCN^−) and FLCN transfected UOK-257 cells UOK-FLCN^+ (Yang et al Cancer Genet Cytogenet. 2008 Jan. 15; 180(2):100-9) were provided by Dr Marston Linehan and Dr. Laura S Schmidt (Urologic Oncology Branch, Centre for Cancer Research, National Cancer Institute, National Institutes of Health, Bethesda, Md. 20892, USA). UOK-257 is the only RCC cell line that has been derived from a patient with BHD and harbours a germline FLCN frameshift mutation (c.1285dupC) (predicted, in the absence of nonsense mediated mRNA decay, to lead to premature protein truncation (p.His429ProfsX27) (Yang et al., Cancer Genet Cytogenet, 2008 Jan. 15; 180(2):100-9). We are not aware of any sporadic RCC cell lines with homozygous FLCN inactivation. FTC-133 cells were purchased from ECACC (Salisbury, United Kingdom). These cells are a non-RCC cell line derived from human thyroid carcinoma. 786-0 cells were available from the author's lab (Clifford et al., Hum Mol Genet. 2001 May 1; 10(10):1029-38). 786-O is a kidney cancer cell line that harbours an inactivating VHL gene mutation (c.311delG p.G104fs*55). All cell lines were cultured in DMEM with supplement of 10% foetal bovine serum except for FTC-133 cells which were incubated in medium with DMEM and Hens (1:1).
The sensitivity of the cell lines to drug-induced cell growth inhibition was determined using the sulphorhodamine B assay (SRB) as described by Lu et al., Clin Cancer Res. 2001:7:2114-23. Briefly, adherent exponentially growing cells were seeded into 96-well plates at 3-5×10^3 cells/100 μl/well. […] The absorbance per well was measured at 570 nm on a Victor X3 Multilabel Plate Reader (PerkinElmor, Beaconsfield, United Kingdom).
GI50 values, defined as the concentration of compounds required to inhibit growth by 50%, were then calculated. The ratio of GI50 value from UOK257-FLCN^+ and UOK257-FLCN^− were calculated and used as an indicator for the sensitivity to FLCN mutant cells.

For another assay, the system named is UOK257-FLCN^+ cells. The assay can be described thus: SRB growth inhibition assay in UOK257-FLCN^+ cells. The format is cell-based, human. To be noted: Homo sapiens, 72 h, 72 hours continuous exposure, mean ± SE (n), read-out: GI50 nM in UOK-FLCN^+.
Description: as §1
The sensitivity of the cell lines to drug-induced cell growth inhibition was determined using the sulphorhodamine B assay (SRB) as described by Lu et al., Clin Cancer Res. 2001:7:2114-23. Briefly, adherent exponentially growing cells were seeded into 96-well plates at 3-5×10^3 cells/100 μl/well. After 20-24 h at 37° C., drugs were added at the appropriate drug concentrations to the wells (final DMSO conc. 1%) as indicated in the Results section. […] The absorbance per well was measured at 570 nm on a Victor X3 Multilabel Plate Reader (PerkinElmor, Beaconsfield, United Kingdom).
UOK-257 is the only RCC cell line that has been derived from a patient with BHD and harbours a germline FLCN frameshift mutation (c.1285dupC) (predicted, in the absence of nonsense mediated mRNA decay, to lead to premature protein truncation (p.His429ProfsX27) (Yang et al Cancer Genet Cytogenet, 2008 Jan. 15; 180(2):100-9). Both UOK257-FLCN^− and UOK257-FLCN^+ cells were examined for their sensitivities to growth inhibition induced by 15 compounds selected from the COMPARE analysis. Various concentrations of compounds were introduced into the cells 24 hrs after seeding, incubation was continued for 72 hours and growth inhibition was assessed using the suiphorhodamine B (SRB) assay. GI50 values, defined as the concentration of compounds required to inhibit growth by 50%, were then calculated. The ratio of GI50 value from UOK257-FLCN^+ and UOK257-FLCN^− were calculated and used as an indicator for the sensitivity to FLCN mutant cells.

For assay [2], the system named is VHL-deficient cells in ccRCC cell lines. Conditions: Sutphin et al., Cancer Res 2007, cited from earlier work.

As to `CO[C@H]1C[C@@H]2CC[C@@H](C)[C@@](O)(O2)C(=O)C(=O)N2CCCC[C@H]2C(=O)O[C@H]([C@H](C)C[C@@H]2CC[C@@H](O)[C@H](OC)C2)CC(=O)[C@H](C)/C=C(\C)[C@@H](O)[C@@H](OC)C(=O)[C@H](C)C[C@H](C)/C=C/C=C/C=C/1C` [rapamycin], the “reduction on cell proliferation” value in assay [1] is given as 10%-15.

For the compound `CO[C@@H]1[C@H](O)C[C@@H](O[C@@H]2C[C@H](Oc3cc4cc5c(c(O)c4c(O)c3C)C(=O)[C@@H](O[C@H]3C[C@@H](O[C@H]4C[C@@H](O[C@H]6C[C@](C)(O)[C@@H](OC(C)=O)[C@H](C)O6)[C@H](O)[C@@H](C)O4)[C@H](O)[C@@H](C)O3)[C@H]([C@H](OC)C(=O)[C@@H](O)[C@@H](C)O)C5)O[C@H](C)[C@@H]2OC(C)=O)O[C@@H]1C` [chromomycin A3], the GI50 with UOK257-FLCN^− cells (Homo sapiens, SRB assay, 72 hours continuous exposure, mean ± SE (n), read-out: GI50 nM in UOK-FLCN^−) came out at 37.4 ± 6.9 nM; in the assay on UOK257-FLCN^+ cells it was 33 ± 5.7 nM. The “differential growth inhibitory activity in FLCN-deficient and FLCN-positive UOK-257 cell lines (in words)” value in the assay with UOK257-FLCN^− cells (listed as ChA3) was “did not find any differences; also recorded: does not demonstrate selective toxicity; also recorded: does not show differential growth inhibitory activity”. Moreover, the “GI50 Ratio of UOK-FLCN^+/UOK-FLCN^−” value with UOK257-FLCN^− cells (ratio>1 = more inhibitory to FLCN^− cells) is reported as 0.88. In addition, the “differential toxicity to VHL-deficient relative to VHL-positive RCC cell lines (in words)” value in assay [2] (listed as ChA3) is reported as “discriminate killing of VHL-deficient cells”; in assay [2] (listed as Chromomycin A3 (ChA3)) it was “differential toxicity”.
